Tests used:
[1] = system: Lewis-Lungenkarzinom-Zellen; experiment: DNA synthesis by 3H-thymidine uptake in Lewis lung carcinoma cells in vitro; format: cell-based, Mäuse; settings: 0,1, 1,0, 10 and 25 µg/ml, 4 h and 18 h, Fig. 1, relative to control = 100 %
From the text: Die antineoplastische Wirksamkeit wurde in vitro durch Messung der DNS-Synthese sowohl von B-16a- als auch von Lewis-Lungenkarzinom-Zellen durch eine Methode gemessen, der die Thymidin-Aufnahme zugrundeliegt. Zellen, die in Vorbereitung der Zellteilung DNS synthetisieren, sind durch ihre Fähigkeit gekennzeichnet, Thymidin aufzunehmen. Demnach ist die Zell-Proliferation mit der DNS-Synthese verbunden. Wenn die Menge der durch die Tumorzellen synthetisierten DNS vermindert wird, so ist das ein Anzeichen dafür, daß die Zellteilung und damit das Tumorwachstum gehemmt worden ist.
B-16a- und Lewis-Lungenkarzinom-Zellen wurden wie vor- stehend beschrieben erhalten. Die dispergierten Zellen wurden in sterilen 25 ml-Erlenmeyer-Kolben aus Kunststoff auf eine Konzentration von 1 x 10^5 Zellen/ml in MEM verdünnt. Tritium-markiertes Thymidin (^3H) mit einer spezifischen Aktivität von […] (50-80 Ci/mmol) wurde mit […] (2 µCi/ml) zu jedem ml der Zellsuspension hinzugefügt.
Zu einer Reihe von Kolben, die die B-16 - und Lewis-Lungenkarzinom-Zellen enthielten, wurde die Pyrazolon-Verbindung in Mengen von 0,1 , 1,0 , 10 und 25 µg/ml des Gesamtvolumens hinzugefügt. […]

B-16 -Melanom-Zellen = experiment: Tumour cell proliferation and viability in tissue culture; format: cell-based, Mäuse; settings: 0,1 to 25 µg/ml; cell counts after 8 days; Fig. 2
From the text: Die antineoplastische Wirksamkeit wurde außerdem durch direkte Messung des Wachstums der Tumorzellen in vitro in Gewebekulturen bestimmt. Diese Methode bedient sich des "Plating" oder Aufimpfens einer bekannten Anzahl von Tumorzellen auf ein Wachstumsmedium und der Bestimmung der Wirkung der Anwesenheit der zu prüfenden Verbindung auf die Tumorzellen-Proliferation. […] wurde die antineoplastische Aktivität in vivo in der Weise bestimmt, daß den Mäusen subkutan Tumorzellen injiziert wurden und das Auftreten von […] sowie […] in unbehandelten Kontrolltieren und in mit der Pyrazolon-Verbindung behandelten […] worden […] von 3 x 10^4 Zellen pro Platte überimpft. Die Zellen wurden in einem Medium aus MEM, Hank's Basic Salt Solution und 10 % […] bei Microbiological Associates, Walkersville, Maryland, kultiviert. Nach 24-stündiger Inkubation bei 37°C wurden die ZellZählungen durch […] Medium wurde […] und durch das oben bezeichnete.Medium und Pyrazolon in einem von 0,1 bis 25 μg/ml […]. Die Kontrollgruppen erhielten nur einen Austausch des Mediums. Danach wurde das Pyrazolon enthaltende Medium jeden zweiten Tag ersetzt. Nach 8 Tagen wurden Zellzählungen wie oben beschrieben durchgeführt, und die Lebensfähigkeit der Zellen wurde nach der weiter oben genannten Vitalfarbstoff-Ausschlußmethode (vital dye exclusive method) bestimmt. Die Daten sind dargestellt als Mittelwert der Zahl […] aus […]. […]

Lewis-Lungen-Karzinom = experiment: Tumour incidence and final tumour weight of subcutaneous Lewis lung carcinoma in mice; format: in vivo, C57BL/6J Mäuse; settings: killed day 22; for Gewicht: final tumour weight
From the text: Die antineoplastische Wirksamkeit wurde außerdem durch direkte Messung des Wachstums der Tumorzellen in vitro in Gewebekulturen bestimmt. Diese Methode bedient sich des "Plating" oder Aufimpfens einer bekannten Anzahl von Tumorzellen auf ein Wachstumsmedium und der Bestimmung der Wirkung der Anwesenheit der zu prüfenden Verbindung auf die Tumorzellen-Proliferation. Schließlich wurde die antineoplastische Aktivität in vivo in der Weise bestimmt, daß den Mäusen subkutan Tumorzellen injiziert wurden und das Auftreten von Tumorzellenwachstum sowie das Gewicht der wachsenden Tumorzellen in unbehandelten Kontrolltieren und in mit der Pyrazolon-Verbindung behandelten Tieren bestimmt wurden.
3 mg 3-Methyl-1-[2-(2-naphthyloxy)-ethyl]-2-pyrazolin-5-on wurden in 0,6 ml Ethylalkohol gelöst, und die Lösung wurde mit konzentrierter Natronlauge auf einen pH von 9,5 eingestellt.
Syngeneischen C57BL/6J Wirts-Mäusen wurden 1 x 10^5 Lewis-Lungenkarzinom-Zellen (0,2 ml) subkutan in die Achselhöhlenregion injiziert. Nach einem Zeitraum von 24 Stunden wurde die Pyrazolon-Verbindung 21 Tage lang täglich verabreicht. Die Wirkung der Verabreichung von Theophyllin zusammen mit der Pyrazolon-Verbindung wurde ebenfalls untersucht. Während des Zeitraums wurden die Mäuse unter identischen Bedingungen der Temperatur, Lichteinwirkungsdauer, Ernährung etc. gehalten. Die Mäuse wurden 22 Tage nach der Injektion der Tumorzellen getötet und mittels einer Gesamt-Nekropsie auf die Anwesenheit subkutaner Tumoren untersucht. Vorhandene Tumoren wurden entfernt und auf einer Analysenwaage gewogen.

Q: Which results are given for `CC1=NN(CCOc2ccc3ccccc3c2)C(=O)C1` [3-Methyl-1-[2-(2-naphthyloxy)-ethyl]-2-pyrazolin-5-on]?
A: DNS-Synthese (3H-Thymidinaufnahme) [1]: konzentrationsabhängige Abnahme der DNS-Synthese; Tumorzellen-Proliferation (B-16 -Melanom-Zellen): die Tumorzellen-Proliferation über den gleichen Dosierungsbereich hemmte; Tumor-Häufigkeit Anzahl (Lewis-Lungen-Karzinom; 0.01 mg daily s.c. for 21 days from 24 h after 10^5 3LL cells s.c.): 3/12; Tumor-Häufigkeit % (Lewis-Lungen-Karzinom; 0.01 mg daily s.c. for 21 days): 25%; Tumor-Häufigkeit % (Lewis-Lungen-Karzinom; 0.02 mg daily s.c. for 21 days): 33%; Tumor-Häufigkeit Anzahl (Lewis-Lungen-Karzinom; 0.02 mg daily s.c. for 21 days): 4/12; Tumor-Häufigkeit % (Lewis-Lungen-Karzinom; 0.08 mg daily s.c. for 21 days): 8%; Tumor-Häufigkeit Anzahl (Lewis-Lungen-Karzinom; 0.08 mg daily s.c. for 21 days): 1/12; Gewicht (Lewis-Lungen-Karzinom; 0.01 mg daily s.c. for 21 days): 0.74 ± 0.46 mg; Gewicht (Lewis-Lungen-Karzinom; 0.02 mg daily s.c. for 21 days): 0.49 ± 0.27 mg; Gewicht (Lewis-Lungen-Karzinom; 0.08 mg daily s.c. for 21 days): 0.16 mg

Source: patent EP0062319A1, “3-Methyl-1-(2-(3-naphthyloxy)-ethyl)-2-pyrazolin-5-one for the treatment of the metastasis and growth of tumour cells” (BAYER AG, priority 1981, dated 1982)
